Assay results taken from EP0227593A1, “Use of chelating agents” (THE HOSPITAL FOR SICK CHILDREN, priority 1985, dated 1987).

What was measured:
blasts = experiment: Marrow aspirate and cytochemistry at conclusion of the 20-day treatment protocol; assay type: in vivo, human
Excerpt: In contrast to the marrow aspirate prior to DFO therapy, 60 % of the blasts were positive for non-specific esterase and staining could be inhibited by fluoride.

bone marrow cells = experiment: Surface marker analysis by immunofluorescence on bone marrow cells at conclusion of the 20-day treatment; assay type: in vivo, human; details: conclusion of 20-day treatment course
Protocol: (§1) Cell Culture Procedure: 2 x 10⁵ T-depleted cells were incubated with 40 % RPMI-methylcellulose, 20 % PHA-LCM, 10 % FCS, irradiated feeder cells (10⁵/dish), 16.6 % RPMI in 35 mm Petri dishes. The culture dishes were placed into a specialized modular incubator chamber (Billups-Rosenberg, Del Mar, CA) in a humidified atmosphere of 5 % O₂, 5 % CO₂ and balanced nitrogen for 3-6 days. After 2 days of incubation, the culture dishes were carefully examined. Colonies were counted at day 4. A cluster of more than 20 cells was defined as a colony. Individual colonies were plucked from the culture plates and smeared on microscope slides for further evaluation, using Wright stain and non-specific esterase staining. For control, 2 x 10⁵ irradiated feeder cells were cultured in the same assay system in each experiment to exclude their potential for colony formation Immunocytochemical Method: The cell surface antigens of air dried smears were detected using monoclonal antibodies and intestinal alkaline phosphatase, as previously described. This assay was performed to detect surface antigens on patients' PB and BM smears and colonies plucked from cultures. The slides were counter- stained in hematoxylin for light microscopy and the presence of surface antigen was indicated as bright red granular cellular inclusions. Morphologic details were well preserved, and a very high degree of correlation between morphology and surface antigen expression was observed. The intensity of staining was defined as strong (+++), moderate (++) and weak (+). Immunofluorescence Method: The cell surface phenotype was determined by indirect cell-surface fluorescence: A fluorescein-conjugated goat anti-mouse IgG (FAb')₂ was used as second antibody. The labelling was performed at room temperature in the presence of 0.2 % sodium azide. The percentage of cells with surface fluorescence was determined by counting cells stained in three replicate wells using an inverted phase-fluorescent microscope. Monoclonal Antibodies: The following monoclonal antibodies were used in these studies: anti-OKIa (Ortho Diagnostic Systems Inc. Raritan, NJ) to detect HLA-D framework antigen, anti-MY-7, anti-Mol and anti-MY-4 (coulter Immunology) to identify myelomonocytic markers, anti-Ig. anti-BA1, anti-BA2, anti-B1, and anti-B4 (Becton-Dickinson) to recognize cells of the B-cell lineage, anti-J5 (Coulter Immunology) to recognize cells bearing common ALL (CALLA) antigen and anti-Leu-1 and anti-Leu-4 (Coulter Immunology) to recognize cells of the T-cell lineage.
Immunologic surface markers were determined by immunofluorescence before and at the conclusion of the 20-day treatment course on bone marrow cells.

[1] = test system: peripheral blood blast cell numbers; experiment: 20-day experimental treatment protocol in a leukemia patient: WBC and blast counts; assay type: in vivo, human
Protocol: With informed consent and following an approval by the Human Experimentation Committee of our institution, an experimental protocol was initiated: DFO, dissolved in sterile water was given by continuous infusion of 10 mg/kg/hour; cytosine arabinoside (Ara-C) dissolved in saline was given by i.v. push, 5 mg/kg/dose. When used consecutively, DFO was stopped 8-12 hours prior to cytosine arabinoside.
Deferoxamine (DFO) was given by continuous infusion 10 mg/kg/hr Cytosine-arabinoside (Ara-C) was given by i.v. push, 5 mg/kg/dose.

[2] = test system: PB leukemia cell colonies; experiment: Surface marker analysis of leukemia cell colonies grown with deferoxamine (immunocytochemical assay); assay type: cell-based, human; set-up: key to Ia intensity of staining / B4 intensity of staining / OKM1 intensity of staining / MY-4 intensity of staining: strong (+++); moderate (++); weak (+); details: colonies from cultures containing 2.5 µM deferoxamine
Protocol: as §1
DFO and Blast Cell Differentiation: Individual blast colonies from the culture plates containing DFO 2.5 µM were characterized (Table 2). Compared to colonies grown without exposure to DFO, a marked change in cell surface antigen expression was observed.
PB leukemia cell colonies were plucked at random from cultures containing 2.5 µM deferoxamine compared to cultures without deferoxamine using the immunocytochemical assay.

[3] = test system: peripheral blood blast cells; experiment: Surface marker analysis on PB smears before and after 48 hours of deferoxamine treatment (immunocytochemical method); assay type: in vivo, human; set-up: key to Ia intensity of staining / OKM1 intensity of staining / MY-4 intensity of staining: strong (+++); moderate (++); weak (+); details: PB smears after 48 hours of deferoxamine treatment
Protocol: as §1
DFO and Blast Cell Differentiation: After 48 hours of continuous infusion of DFO as a single agent, striking changes in blast cell surface markers were detected immunocytochemically (Table 3). Prior to treatment, no blasts expressed OKM1 antigen, and only 8 % weakly expressed MY-4. After 48 hours, these two antigens were strongly detected in peripheral blood blast cells. Concomitantly with DFO therapy, there was a sharp decline from 37 % to 0 % of cells bearing B₄ antigen.
Immunologic surface markers were dermined before and after 48 hours of deferoxamine treatment on PB smears using the immunocytochemical method

L-1210 tumour cells = experiment: L-1210 tumour growth in mice; assay type: in vivo; details: day 8
Protocol: One hour prior to kill on day 8 the mice received one ip injection of 0.002 mCi of 3H-thymidine per g body weight. Cells were harvested from the peritoneal cavity, the volume of ascites measured and the cell counts determined in a coulter counter, after lysis of red cells with zap-oglobin, for calculation of total tumour cell numbers. Also, of each sample cell smears were done, Feulgen stained and autoradiographed, whereby the number and percentage of labelled cells was determined and used as a measure for proliferating cells.

[4] = Day 1, DFO continuous infusion 10 mg/kg/hr, 24 h
[5] = Day 3, after first 48 hours of DFO, Ara-C starts Day 3
[6] = DFO 400 mg/kg/d s.c. minipump from day 2, Ara-C 200 mg/kg once ip on day 6

Compound: CC(=O)N(O)CCCCCNC(=O)CCC(=O)N(O)CCCCCNC(=O)CCC(=O)N(O)CCCCCN [DFO, desferioxamine methanesulfonate]
- blasts in marrow aspirate (blasts; conclusion of the 20-day treatment protocol (DFO and Ara-C)): 60%
- blasts positive for non-specific esterase (blasts; marrow aspirate, conclusion of the 20-day treatment protocol): 60%
- % Positive Cells B4 (bone marrow cells): 10%
- % Positive Cells BA-1 (bone marrow cells): 0%
- % Positive Cells BA-2 (bone marrow cells): 0%
- % Positive Cells Ia (bone marrow cells): 75%
- % Positive Cells MY-4 (bone marrow cells): 20%
- % Positive Cells MY-7 (bone marrow cells): 20%
- % Positive Cells Mo1 (bone marrow cells): 20%
- % Positive Cells sIg (bone marrow cells): 0%
- Blasts [1, 4]: 4.22e+10 L⁻¹
- WBC [1, 4]: 6.25e+10 L⁻¹
- Blasts [1, 5]: 4.09e+10 L⁻¹
- WBC [1, 5]: 6.39e+10 L⁻¹
- B4 Positive [2]: 30%
- B4 intensity of staining [2]: +++
- CALLA Positive [2]: 0%
- Ia Positive [2]: 80%
- Ia intensity of staining [2]: +++
- Leu-1 Positive [2]: 0%
- Leu-4 Positive [2]: 0%
- MY-4 Positive [2]: 60%
- MY-4 intensity of staining [2]: ++
- OKM1 Positive [2]: > 90%
- OKM1 intensity of staining [2]: +++
- B4 positive cells [3]: 0%
- CALLA positive cells [3]: 0%
- Ia intensity of staining [3]: +++
- Ia positive cells [3]: 80%
- Leu-1 positive cells [3]: 0%
- Leu-4 positive cells [3]: 0%
- MY-4 intensity of staining [3]: +++
- MY-4 positive cells [3]: 60%
- OKM1 intensity of staining [3]: +++
- OKM1 positive cells [3]: 40%
- proportions of proliferating cells (L-1210 tumour cells; 3H-thymidine labelled cells, same doses as Table 12): 28 % ± 8%
- Number of cells in the peritoneal cavity % of control (L-1210 tumour cells; [6]): 95%
- Number of cells in the peritoneal cavity x̄ ± SD (L-1210 tumour cells; [6]): 3.49 ± 1.75 10^8
- Number of proliferating cells in peritoneal cavity % of control (L-1210 tumour cells; [6]): 80%
- Number of proliferating cells in peritoneal cavity x̄ ± SD (L-1210 tumour cells; [6]): 0.98 ± 0.64 10^8
